How the values were obtained:
P-gp = assay: Permeability across pig LLC-PK1 cells expressing P-gp; assay type: ADME, cell-based, Sus scrofa
Liver microsomes [1] = assay: Covalent protein binding in human liver microsomes assessed as GSH adduct formation measured per mg protein at 10 uM after 60 mins in presence of NADPH by NMR spectroscopy; assay type: ADME, Microsome; settings: 1 h
PXR (NR1I2) = target: T1, PXR (NR1I2) (Homo sapiens, UniProt O75469); assay: Activity at PXR at 10 uM relative to rifampicin; settings: read-out: Activity
T1 sequence (O75469 whole entry): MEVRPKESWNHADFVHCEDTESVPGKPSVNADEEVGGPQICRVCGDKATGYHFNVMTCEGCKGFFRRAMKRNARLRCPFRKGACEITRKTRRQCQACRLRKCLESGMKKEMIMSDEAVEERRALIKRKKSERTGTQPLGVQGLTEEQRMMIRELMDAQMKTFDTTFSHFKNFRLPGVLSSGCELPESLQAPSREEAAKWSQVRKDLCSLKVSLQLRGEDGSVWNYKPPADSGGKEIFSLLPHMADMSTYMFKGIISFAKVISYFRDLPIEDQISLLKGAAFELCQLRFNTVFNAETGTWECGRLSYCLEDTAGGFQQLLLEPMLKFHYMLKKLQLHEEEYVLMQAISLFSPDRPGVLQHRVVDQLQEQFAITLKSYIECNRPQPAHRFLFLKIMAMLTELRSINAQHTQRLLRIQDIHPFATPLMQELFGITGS

[2] = Antagonist activity at L-type calcium channel by FLIPR assay; assay type: functional
LLC-PK1 = assay: Ratio of permeability from basolateral to apical side to apical to basolateral side of pig LLC-PK1 cells expressing P-gp; assay type: ADME, cell-based, Sus scrofa
[3] = Ratio of IC50 for hyperpolarized T-type calcium channel to IC50 for depolarized T-type calcium channel
[4] = Antagonist activity at hyperpolarized T-type calcium channel by FLIPR assay; assay type: functional
Rattus norvegicus [5] = assay: Anticonvulsant activity in WAG/Rij rat assessed as inhibition of seizure at 3 mg/kg, po measured after 4 hrs; assay type: functional
[6] = Antagonist activity at depolarized T-type calcium channel by FLIPR assay; assay type: functional
[7] = target: Voltage-gated inwardly rectifying potassium channel KCNH2 (Homo sapiens, UniProt Q12809); assay: Displacement of […] from human ERG in HEK293 cells; assay type: cell-based
Chain of Voltage-gated inwardly rectifying potassium channel KCNH2 (Q12809 whole entry): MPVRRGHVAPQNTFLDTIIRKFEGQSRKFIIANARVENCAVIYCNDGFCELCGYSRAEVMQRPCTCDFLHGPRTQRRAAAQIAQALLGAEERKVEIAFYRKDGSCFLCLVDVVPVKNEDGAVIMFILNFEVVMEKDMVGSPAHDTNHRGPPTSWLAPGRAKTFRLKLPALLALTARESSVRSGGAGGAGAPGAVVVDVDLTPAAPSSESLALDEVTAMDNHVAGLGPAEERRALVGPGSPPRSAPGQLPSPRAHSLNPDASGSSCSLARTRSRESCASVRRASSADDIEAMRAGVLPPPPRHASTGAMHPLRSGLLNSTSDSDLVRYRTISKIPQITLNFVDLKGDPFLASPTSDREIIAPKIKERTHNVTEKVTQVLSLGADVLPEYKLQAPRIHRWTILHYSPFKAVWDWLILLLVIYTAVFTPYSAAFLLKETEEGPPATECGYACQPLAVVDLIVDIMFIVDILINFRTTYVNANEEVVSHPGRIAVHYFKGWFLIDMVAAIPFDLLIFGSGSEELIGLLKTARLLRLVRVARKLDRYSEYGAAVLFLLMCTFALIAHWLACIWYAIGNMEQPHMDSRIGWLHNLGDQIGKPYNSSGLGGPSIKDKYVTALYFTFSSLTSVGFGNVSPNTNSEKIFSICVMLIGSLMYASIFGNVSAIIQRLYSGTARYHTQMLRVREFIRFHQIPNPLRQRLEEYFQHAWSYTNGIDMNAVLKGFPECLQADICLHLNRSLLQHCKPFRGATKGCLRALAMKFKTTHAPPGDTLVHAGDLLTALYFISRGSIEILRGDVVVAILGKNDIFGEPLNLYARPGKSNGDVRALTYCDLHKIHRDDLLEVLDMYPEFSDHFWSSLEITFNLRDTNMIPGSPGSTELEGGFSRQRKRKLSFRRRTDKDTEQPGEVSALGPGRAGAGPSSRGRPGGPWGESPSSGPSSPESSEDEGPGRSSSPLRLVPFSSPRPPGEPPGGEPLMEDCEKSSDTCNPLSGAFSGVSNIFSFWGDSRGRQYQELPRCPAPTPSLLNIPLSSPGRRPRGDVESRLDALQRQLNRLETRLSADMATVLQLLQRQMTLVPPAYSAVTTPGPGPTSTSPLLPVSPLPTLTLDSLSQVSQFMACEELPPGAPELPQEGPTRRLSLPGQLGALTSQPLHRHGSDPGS

[8] = Binding affinity to T-type calcium channel
[9] = Half life in rat at 10 mg/kg; assay type: ADME, organism-based; design: dose 10 mg/kg; settings: in vivo
[10] = Systemic clearance in dog at 10 mg/kg; assay type: ADME, organism-based, Canis lupus familiaris; design: dose 10 mg/kg; settings: in vivo
[11] = Volume of distribution at steady state in dog at 10 mg/kg; assay type: ADME, organism-based, Canis lupus familiaris; design: dose 10 mg/kg; settings: in vivo, read-out: Vdss
[12] = Plasma protein binding in dog assessed as fraction unbound at 5 uM; assay type: ADME, cell-free, Canis lupus familiaris
[13] = Half life in dog at 10 mg/kg; assay type: ADME, organism-based, Canis lupus familiaris; design: dose 10 mg/kg; settings: in vivo
[14] = Plasma protein binding in rat assessed as fraction unbound at 5 uM; assay type: ADME, cell-free
[15] = Systemic clearance in rat at 10 mg/kg; assay type: ADME, organism-based; design: dose 10 mg/kg; settings: in vivo
[16] = Volume of distribution at steady state in rat at 10 mg/kg; assay type: ADME, organism-based; design: dose 10 mg/kg; settings: in vivo, read-out: Vdss
[17] = Bioavailability in dog at 10 mg/kg; assay type: ADME, organism-based, Canis lupus familiaris; settings: in vivo
[18] = Bioavailability in rat at 10 mg/kg; assay type: ADME, organism-based; settings: in vivo
Rattus norvegicus [19] = assay: Effect on sleep wake cycle in po dosed rat assessed as increase in delta sleep administered daily 30 mins before inactive phase measured 0.5 to 2 hrs post administration; assay type: functional, organism-based
Rattus norvegicus [20] = assay: Effect on sleep wake cycle in rat assessed as suppression of active wake time at 5 mg/kg, po administered daily 30 mins before inactive phase; assay type: functional
[21] = Half life in rat at 5 mg/kg, po; assay type: ADME, organism-based; design: dose 5 mg/kg, route oral; settings: in vivo
[22] = Inhibition of Sodium channel; settings: concentration not given here
[23] = target: T2, Voltage-dependent T-type calcium channel subunit alpha-1I (Homo sapiens, UniProt Q9P0X4); assay: Antagonist activity at Cav3.3 at -80 mV holding potential by whole cell patch clamp analysis; assay type: functional
T2 sequence (Q9P0X4 whole entry): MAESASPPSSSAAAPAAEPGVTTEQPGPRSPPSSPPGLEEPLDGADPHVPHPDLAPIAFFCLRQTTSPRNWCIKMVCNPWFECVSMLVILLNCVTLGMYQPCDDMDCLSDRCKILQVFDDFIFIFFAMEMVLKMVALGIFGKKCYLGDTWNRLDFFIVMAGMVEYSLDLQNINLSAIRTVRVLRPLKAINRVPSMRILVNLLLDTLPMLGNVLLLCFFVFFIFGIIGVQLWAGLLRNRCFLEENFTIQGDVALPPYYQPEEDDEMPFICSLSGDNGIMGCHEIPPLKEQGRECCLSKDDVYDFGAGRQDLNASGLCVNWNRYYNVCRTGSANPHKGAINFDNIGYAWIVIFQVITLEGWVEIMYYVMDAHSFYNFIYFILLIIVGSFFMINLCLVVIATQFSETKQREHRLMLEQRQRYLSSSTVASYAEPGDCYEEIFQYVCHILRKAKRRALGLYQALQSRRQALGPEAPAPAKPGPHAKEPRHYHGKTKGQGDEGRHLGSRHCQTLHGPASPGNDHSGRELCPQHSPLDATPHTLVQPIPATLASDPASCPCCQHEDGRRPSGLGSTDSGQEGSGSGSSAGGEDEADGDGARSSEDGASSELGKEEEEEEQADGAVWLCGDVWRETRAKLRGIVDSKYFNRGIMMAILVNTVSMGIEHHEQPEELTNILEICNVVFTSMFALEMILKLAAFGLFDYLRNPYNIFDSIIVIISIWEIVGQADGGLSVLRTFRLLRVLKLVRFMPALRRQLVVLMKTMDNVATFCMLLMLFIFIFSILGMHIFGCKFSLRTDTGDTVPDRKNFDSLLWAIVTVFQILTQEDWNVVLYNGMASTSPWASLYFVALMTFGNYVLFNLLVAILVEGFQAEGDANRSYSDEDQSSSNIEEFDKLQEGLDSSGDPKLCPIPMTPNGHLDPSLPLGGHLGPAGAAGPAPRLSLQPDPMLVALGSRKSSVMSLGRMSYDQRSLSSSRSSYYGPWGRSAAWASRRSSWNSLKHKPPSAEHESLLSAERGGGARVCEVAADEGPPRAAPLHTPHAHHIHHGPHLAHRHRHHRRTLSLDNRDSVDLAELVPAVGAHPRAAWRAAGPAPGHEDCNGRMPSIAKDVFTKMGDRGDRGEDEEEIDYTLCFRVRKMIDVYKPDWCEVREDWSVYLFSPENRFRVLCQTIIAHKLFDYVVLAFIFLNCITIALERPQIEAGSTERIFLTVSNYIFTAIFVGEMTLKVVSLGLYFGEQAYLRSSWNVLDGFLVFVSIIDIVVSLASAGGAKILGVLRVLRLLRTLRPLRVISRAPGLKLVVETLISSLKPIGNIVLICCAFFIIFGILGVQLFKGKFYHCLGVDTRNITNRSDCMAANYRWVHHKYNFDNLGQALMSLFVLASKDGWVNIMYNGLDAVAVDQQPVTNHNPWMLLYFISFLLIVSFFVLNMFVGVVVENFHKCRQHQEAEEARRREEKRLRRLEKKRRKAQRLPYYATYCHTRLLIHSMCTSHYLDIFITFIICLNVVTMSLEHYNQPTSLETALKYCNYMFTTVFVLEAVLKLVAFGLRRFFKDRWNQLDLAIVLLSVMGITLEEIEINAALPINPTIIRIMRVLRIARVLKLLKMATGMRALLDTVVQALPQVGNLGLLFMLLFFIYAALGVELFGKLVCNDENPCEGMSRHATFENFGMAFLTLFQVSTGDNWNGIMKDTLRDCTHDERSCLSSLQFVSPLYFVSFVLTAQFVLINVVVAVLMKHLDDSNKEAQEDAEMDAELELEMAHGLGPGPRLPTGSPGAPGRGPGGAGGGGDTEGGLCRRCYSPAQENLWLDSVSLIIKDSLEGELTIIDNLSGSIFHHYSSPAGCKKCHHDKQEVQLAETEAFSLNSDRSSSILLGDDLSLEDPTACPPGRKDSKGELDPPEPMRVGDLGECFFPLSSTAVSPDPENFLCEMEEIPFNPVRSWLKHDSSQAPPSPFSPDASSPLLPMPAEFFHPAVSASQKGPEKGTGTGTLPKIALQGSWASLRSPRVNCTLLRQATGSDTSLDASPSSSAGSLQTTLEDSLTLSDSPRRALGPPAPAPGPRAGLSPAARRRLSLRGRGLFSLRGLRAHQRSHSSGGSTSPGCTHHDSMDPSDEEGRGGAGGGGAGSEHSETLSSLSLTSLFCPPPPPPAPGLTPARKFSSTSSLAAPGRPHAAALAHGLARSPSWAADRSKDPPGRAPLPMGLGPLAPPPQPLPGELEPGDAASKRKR

hERG (KCNH2) = hERG (KCNH2) (Homo sapiens, UniProt Q12809); assay: Inhibition of human ERG at 30 uM
Chain of hERG (KCNH2) (Q12809 whole entry): as the sequence (Q12809 whole entry) above

[24] = target: Voltage-gated potassium channel, IKs; KCNQ1(Kv7.1)/KCNE1(MinK) (Homo sapiens, UniProt P51787+P15382); assay: Inhibition of IKs; assay type: protein-complex assay
[25] = Volume of distribution at steady state in rhesus monkey at 10 mg/kg; assay type: ADME, organism-based, Macaca mulatta; design: dose 10 mg/kg; settings: in vivo, read-out: Vdss
[26] = Apparent terminal half life in human at 20 mg, po; assay type: ADME, organism-based; settings: in vivo, read-out: betat1/2(app) (converted)
[27] = target: T2, Voltage-dependent T-type calcium channel subunit alpha-1I; assay: Antagonist activity at Cav3.3 at -100 mV holding potential by whole cell patch clamp analysis; assay type: functional
Liver microsomes [28] = assay: Covalent protein binding in human liver microsomes assessed per mg protein at 10 uM after 60 mins in presence of NADPH by NMR spectroscopy; assay type: ADME, Microsome; settings: 1 h
[29] = Systemic clearance in rhesus monkey at 10 mg/kg; assay type: ADME, organism-based, Macaca mulatta; design: dose 10 mg/kg; settings: in vivo
[30] = Half life in rhesus monkey at 10 mg/kg; assay type: ADME, organism-based, Macaca mulatta; design: dose 10 mg/kg; settings: in vivo
[31] = Inhibition of L-type calcium channel at 30 uM
[32] = Bioavailability in rhesus monkey at 10 mg/kg; assay type: ADME, organism-based, Macaca mulatta; settings: in vivo
[33] = Plasma protein binding in rhesus monkey assessed as fraction unbound at 5 uM; assay type: ADME, Macaca mulatta
[34] = Plasma protein binding in human assessed as fraction unbound at 5 uM; assay type: ADME, cell-free
[35] = Cmax in human at 20 mg, po; assay type: ADME, organism-based; design: dose 20 mg, route oral; settings: in vivo

| SMILES | Papp (P-gp) | PB (Liver microsomes [1]) | activity at 10 µM (PXR (NR1I2)) | IC50 [2] | Ratio (LLC-PK1) | Ratio IC50 [3] | IC50 [4] | inhibition in vivo at 3 mg/kg (Rattus norvegicus [5]) | IC50 [6] | IC50 [7] | Ki [8] | half-life [9] | clearance [10] | Vd [11] | fraction unbound at 5 µM [12] | half-life [13] | fraction unbound at 5 µM [14] | clearance [15] | Vd [16] | bioavailability [17] | other results |
| --- | --- | --- | --- | --- | --- | --- | --- | --- | --- | --- | --- | --- | --- | --- | --- | --- | --- | --- | --- | --- | --- |
| C[C@@H](NC(=O)Cc1ccc(-c2cnn3ncccc23)cc1)c1ccc(OCC(F)(F)F)cn1 | 38 ×10⁻⁶ cm/s | 244 pmol | 0% | > 10000 nM | 1.3 | > 80 | 397 nM | 85% | 5.4 nM | > 30000 nM |  |  |  |  |  |  |  |  |  |  |  |
| C[C@@H](NC(=O)Cc1ccc(N2CC[C@H](F)C2)cc1)c1ccc(OCC(F)(F)F)cn1 | 41 ×10⁻⁶ cm/s |  | 31% | > 10000 nM |  |  | 249 nM |  | 3.7 nM |  | 0.3 nM |  |  |  |  |  |  |  |  |  |  |
| C[C@@H](NC(=O)Cc1ccc(C2CC2)cc1)c1ccc(OCC(F)(F)F)cn1 | 45 ×10⁻⁶ cm/s |  | 17% | > 10000 nM | 0.7 | > 80 | 384 nM | 87% | 9.4 nM | > 10000 nM | 1.2 nM |  |  |  |  |  |  |  |  |  |  |
| Cc1ncoc1-c1ccc(CC(=O)N[C@H](C)c2ccc(OCC(F)(F)F)cn2)cc1 | 35 ×10⁻⁶ cm/s | 1558 pmol | 7% | > 10000 nM | 1.1 | > 80 | 206 nM | 72% | 5.3 nM | > 30000 nM | 0.2 nM | 24 min | 3.6 mL/min/kg | 0.3 L/kg | 0.016 | 66 min | 0.052 | 35 mL/min/kg | 1.1 L/kg | 50% | bioavailability [18]: 100% |
| Cc1nccnc1-c1ccc(CC(=O)N[C@H](C)c2ccc(OCC(F)(F)F)cn2)cc1 | 44 ×10⁻⁶ cm/s |  | 8% | > 10000 nM | 1.3 | > 80 | 1920 nM | 87% | 31.3 nM | > 30000 nM | 5.5 nM | 14.4 min | 11.8 mL/min/kg | 0.36 L/kg | 0.155 | 48.6 min | 0.123 | 30.3 mL/min/kg | 0.59 L/kg | 23% | Activity (Rattus norvegicus [19]): Dose-dependent effect; Time (Rattus norvegicus [20]): 1.5 h; half-life [21]: 14 min; inhibition [22]: 20%; IC50 [23]: 264 nM; inhibition at 30 µM (hERG (KCNH2)): 41%; inhibition (INH) [24]: Not Active; Vd [25]: 0.74 L/kg; half-life [26]: 180 min; IC50 [27]: 12000 nM; PB (Liver microsomes [28]): 8 pmol; clearance [29]: 19.3 mL/min/kg; half-life [30]: 31.8 min; inhibition [31]: 12%; bioavailability [32]: 5%; fraction unbound at 5 µM [33]: 0.146; fraction unbound at 5 µM [34]: 0.032; bioavailability [18]: 71%; Cmax [35]: 1820 nM |
